Data as given in PubChem BioAssay (NCI).
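Exposure lasted 48 hours, with cells grown in 96-well plates and compounds tested at five concentrations. TGI: total growth inhibition.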

Tests used:
Experiment in all cases: NCI-60 cell line screen, 48 h
[1] = tested on: 786-0 renal
[2] = tested on: A549 NSCLC
[3] = tested on: ACHN renal
[4] = tested on: CCRF-CEM leukemia
[5] = tested on: COLO 205 colon
[6] = tested on: DMS 114 small cell lung
[7] = tested on: DMS 273 small cell lung
[8] = tested on: EKVX NSCLC
[9] = tested on: HCC-2998 colon
[10] = tested on: HCT-116 colon
[11] = tested on: HCT-15 colon
[12] = tested on: HL-60(TB) leukemia
[13] = tested on: HOP-62 NSCLC
[14] = tested on: HT29 colon
[15] = tested on: IGROV1 ovarian
[16] = tested on: K-562 leukemia
[17] = tested on: KM12 colon
[18] = tested on: KM20L2 colon
[19] = tested on: LOX IMVI melanoma
[20] = tested on: LXFL 529 NSCLC
[21] = tested on: M14 melanoma
[22] = tested on: M19-MEL melanoma
[23] = tested on: MALME-3M melanoma
[24] = tested on: MOLT-4 leukemia
[25] = tested on: NCI-H226 lung
[26] = tested on: NCI-H23 lung
[27] = tested on: NCI-H460 lung
[28] = tested on: NCI-H522 lung
[29] = tested on: OVCAR-3 ovarian
[30] = tested on: OVCAR-8 ovarian
[31] = tested on: RPMI-8226 leukemia
[32] = tested on: RXF 393 renal
[33] = tested on: SF-268 CNS
[34] = tested on: SF-295 CNS
[35] = tested on: SF-539 CNS
[36] = tested on: SK-MEL-28 melanoma
[37] = tested on: SK-MEL-5 melanoma
[38] = tested on: SK-OV-3 ovarian
[39] = tested on: SN12C renal
[40] = tested on: SNB-19 CNS
[41] = tested on: SR leukemia
[42] = tested on: SW-620 colon
[43] = tested on: TK-10 renal
[44] = tested on: U251 CNS
[45] = tested on: UACC-257 melanoma
[46] = tested on: UO-31 renal
[47] = tested on: XF 498 CNS
[48] = tested on: A498 renal
[49] = tested on: BT-549 breast
[50] = tested on: CAKI-1 renal
[51] = tested on: DLD-1 colon
[52] = tested on: DU-145 prostate
[53] = tested on: HOP-92 NSCLC
[54] = tested on: HS 578T breast
[55] = tested on: MCF7 breast
[56] = tested on: MDA-MB-231 breast
[57] = tested on: MDA-MB-435
[58] = tested on: MDA-N
[59] = tested on: NCI/ADR-RES ovarian
[60] = tested on: OVCAR-4 ovarian
[61] = tested on: OVCAR-5 ovarian
[62] = tested on: SK-MEL-2 melanoma
[63] = tested on: SNB-78 CNS
[64] = tested on: T-47D breast
[65] = tested on: UACC-62 melanoma
[66] = tested on: SNB-75 CNS

Measured: TGI

O=C1CCC2(CCC(=O)NC2=O)C(=O)N1
not listed: [48] | [49] | [50] | [51] | [52] | [53] | [54] | [55] | [56] | [57] | [58] | [59] | [60] | [61] | [62] | [63] | [64] | [65] | [66]
> 100 µM: all other assays above

O=S1(=O)NNC(=NCc2ccc(F)cc2)c2ccccc21
> 72.7 µM: [4]
> 78.8 µM: [31]
> 70.8 µM: [24]
> 83.5 µM: [53]
19.6 µM: [12]
49.2 µM: [54]
> 69.3 µM: [32]
> 31.6 µM: [27]
> 68.8 µM: [41]
> 83.4 µM: [44]
> 73.1 µM: [16]
not listed: [6] | [28] | [43] | [66]
> 100 µM: all other assays above

Clc1ccc2c(Cl)ncnc2c1
not listed: [6] | [20] | [32] | [49] | [52] | [54] | [55] | [56] | [57] | [58] | [59] | [63] | [64]
> 100 µM: all other assays above
